According to ChEMBL document CHEMBL4828709, “Discovery of 2,4-pyrimidinediamine derivatives as potent dual inhibitors of ALK and HDAC” (Eur J Med Chem, 2021):
Active and inactive are the calls of the source. No cut-off for these calls is given here.

How the values were obtained:
[1] = target: ALK tyrosine kinase receptor (Homo sapiens, UniProt Q9UM73, L1196M)
cells = assay type: functional, cell-based; conditions: Homo sapiens, SKNBE2, 72 h
Description: Antiproliferative activity against human SKNBE2 cells harboring wild type ALK assessed as inhibition of cell proliferation measured after 72 hrs by CCK8 assay

[2] = target: T1, ALK tyrosine kinase receptor (Homo sapiens, UniProt Q9UM73); test: Inhibition of human ALK in human SH-SY5Y cells assessed as inhibition of ERK phosphorylation at Thr202/Tyr204 residue measured after 24 hrs by Western blot assay; assay type: cell-based; conditions: dose 1-4 µM
T1 sequence (Q9UM73 19-1620 limits assumed): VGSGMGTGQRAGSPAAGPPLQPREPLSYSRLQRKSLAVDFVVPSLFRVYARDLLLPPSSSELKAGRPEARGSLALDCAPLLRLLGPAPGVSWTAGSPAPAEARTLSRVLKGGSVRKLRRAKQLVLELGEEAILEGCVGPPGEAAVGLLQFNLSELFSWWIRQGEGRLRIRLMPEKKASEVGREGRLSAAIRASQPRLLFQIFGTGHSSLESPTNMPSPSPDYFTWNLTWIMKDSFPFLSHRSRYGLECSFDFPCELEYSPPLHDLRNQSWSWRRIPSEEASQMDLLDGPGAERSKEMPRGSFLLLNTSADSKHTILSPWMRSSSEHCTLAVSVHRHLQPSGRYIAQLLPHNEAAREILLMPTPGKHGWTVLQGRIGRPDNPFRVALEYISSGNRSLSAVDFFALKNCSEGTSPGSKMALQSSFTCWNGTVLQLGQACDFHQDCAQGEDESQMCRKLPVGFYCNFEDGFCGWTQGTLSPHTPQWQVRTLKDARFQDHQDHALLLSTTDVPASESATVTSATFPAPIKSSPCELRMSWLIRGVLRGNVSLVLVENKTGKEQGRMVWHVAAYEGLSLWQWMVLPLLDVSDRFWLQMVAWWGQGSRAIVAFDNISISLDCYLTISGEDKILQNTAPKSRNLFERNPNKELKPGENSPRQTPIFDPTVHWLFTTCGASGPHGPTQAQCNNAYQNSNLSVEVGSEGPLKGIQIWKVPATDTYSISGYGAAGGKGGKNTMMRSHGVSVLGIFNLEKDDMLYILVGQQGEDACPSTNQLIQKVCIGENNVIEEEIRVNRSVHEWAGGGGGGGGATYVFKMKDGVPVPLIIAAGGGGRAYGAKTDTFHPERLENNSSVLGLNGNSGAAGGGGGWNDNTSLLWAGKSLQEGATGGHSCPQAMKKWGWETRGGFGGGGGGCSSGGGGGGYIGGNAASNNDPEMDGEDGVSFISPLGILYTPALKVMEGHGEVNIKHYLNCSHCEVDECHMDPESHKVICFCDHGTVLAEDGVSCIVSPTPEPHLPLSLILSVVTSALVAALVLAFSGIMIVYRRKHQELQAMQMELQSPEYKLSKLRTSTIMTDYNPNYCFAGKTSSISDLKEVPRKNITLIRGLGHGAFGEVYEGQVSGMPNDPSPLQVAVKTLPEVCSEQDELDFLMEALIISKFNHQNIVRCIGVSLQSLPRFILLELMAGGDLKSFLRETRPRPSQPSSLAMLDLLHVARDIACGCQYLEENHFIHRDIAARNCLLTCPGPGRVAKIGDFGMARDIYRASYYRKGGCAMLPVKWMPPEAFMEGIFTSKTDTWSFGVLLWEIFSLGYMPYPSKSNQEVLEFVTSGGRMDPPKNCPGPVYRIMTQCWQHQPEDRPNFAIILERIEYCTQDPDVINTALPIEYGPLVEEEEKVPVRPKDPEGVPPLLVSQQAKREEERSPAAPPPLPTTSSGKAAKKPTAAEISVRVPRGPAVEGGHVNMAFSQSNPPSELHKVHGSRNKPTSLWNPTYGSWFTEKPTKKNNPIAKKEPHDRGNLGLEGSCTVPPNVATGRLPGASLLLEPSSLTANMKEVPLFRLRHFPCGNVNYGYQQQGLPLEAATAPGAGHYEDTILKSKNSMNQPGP

[3] = target: T1, ALK tyrosine kinase receptor; test: Inhibition of ALK in human MDA-MB-231 cells assessed as inhibition of ALK phosphorylation at Tyr1278 residue measured after 24 hrs by Western blot assay; assay type: cell-based; conditions: dose 1-4 µM
SH-SY5Y [4] = test: Induction of apoptosis in human SH-SY5Y cells assessed as early apoptotic cells at 2 uM measured after 24 hrs by Annexin V-FITC/PI staining based flowcytometry (reference value: 0.82%); assay type: functional
SH-SY5Y [5] = test: Potency index, ratio of ceritinib IC50 to test compound IC50 for human SH-SY5Y cells harboring ALK F1174L mutant assessed as inhibition of cell proliferation measured after 72 hrs by CCK8 assay; assay type: functional
MDA-MB-231 [6] = test: Induction of apoptosis in human MDA-MB-231 cells assessed as late apoptotic cells at 1 uM measured after 24 hrs by Annexin V-FITC/PI staining based flowcytometry ( Rvb = 5.28%); assay type: functional
MDA-MB-231 [7] = test: Induction of apoptosis in human MDA-MB-231 cells assessed as late apoptotic cells at 2 uM measured after 24 hrs by Annexin V-FITC/PI staining based flowcytometry ( Rvb = 5.28%); assay type: functional
[8] = AUC (0 to infinity) in Sprague-Dawley rat at 1 mg/kg, iv measured for 12 hrs by LC-MS/MS analysis; assay type: ADME, organism-based; set-up: route intravenous, dose 1 mg/kg, time 12 hrs; conditions: in vivo
MDA-MB-231 [9] = test: Cell cycle arrest in human MDA-MB-231 cells assessed as accumulation of cells at S phase at 2 uM measured after 24 hrs by PI staining based flowcytometry method (reference value: 20.81%); assay type: functional
[10] = test system: ALK tyrosine kinase receptor (Homo sapiens), Q9UM73 [G1202R]; test: Potency index, ratio of ceritinib IC50 to test compound IC50 for inhibition of ALK G1202R mutant (unknown origin)
ALK tyrosine kinase receptor (Homo sapiens), Q9UM73 [G1202R], sequence (Q9UM73 whole entry G1202R): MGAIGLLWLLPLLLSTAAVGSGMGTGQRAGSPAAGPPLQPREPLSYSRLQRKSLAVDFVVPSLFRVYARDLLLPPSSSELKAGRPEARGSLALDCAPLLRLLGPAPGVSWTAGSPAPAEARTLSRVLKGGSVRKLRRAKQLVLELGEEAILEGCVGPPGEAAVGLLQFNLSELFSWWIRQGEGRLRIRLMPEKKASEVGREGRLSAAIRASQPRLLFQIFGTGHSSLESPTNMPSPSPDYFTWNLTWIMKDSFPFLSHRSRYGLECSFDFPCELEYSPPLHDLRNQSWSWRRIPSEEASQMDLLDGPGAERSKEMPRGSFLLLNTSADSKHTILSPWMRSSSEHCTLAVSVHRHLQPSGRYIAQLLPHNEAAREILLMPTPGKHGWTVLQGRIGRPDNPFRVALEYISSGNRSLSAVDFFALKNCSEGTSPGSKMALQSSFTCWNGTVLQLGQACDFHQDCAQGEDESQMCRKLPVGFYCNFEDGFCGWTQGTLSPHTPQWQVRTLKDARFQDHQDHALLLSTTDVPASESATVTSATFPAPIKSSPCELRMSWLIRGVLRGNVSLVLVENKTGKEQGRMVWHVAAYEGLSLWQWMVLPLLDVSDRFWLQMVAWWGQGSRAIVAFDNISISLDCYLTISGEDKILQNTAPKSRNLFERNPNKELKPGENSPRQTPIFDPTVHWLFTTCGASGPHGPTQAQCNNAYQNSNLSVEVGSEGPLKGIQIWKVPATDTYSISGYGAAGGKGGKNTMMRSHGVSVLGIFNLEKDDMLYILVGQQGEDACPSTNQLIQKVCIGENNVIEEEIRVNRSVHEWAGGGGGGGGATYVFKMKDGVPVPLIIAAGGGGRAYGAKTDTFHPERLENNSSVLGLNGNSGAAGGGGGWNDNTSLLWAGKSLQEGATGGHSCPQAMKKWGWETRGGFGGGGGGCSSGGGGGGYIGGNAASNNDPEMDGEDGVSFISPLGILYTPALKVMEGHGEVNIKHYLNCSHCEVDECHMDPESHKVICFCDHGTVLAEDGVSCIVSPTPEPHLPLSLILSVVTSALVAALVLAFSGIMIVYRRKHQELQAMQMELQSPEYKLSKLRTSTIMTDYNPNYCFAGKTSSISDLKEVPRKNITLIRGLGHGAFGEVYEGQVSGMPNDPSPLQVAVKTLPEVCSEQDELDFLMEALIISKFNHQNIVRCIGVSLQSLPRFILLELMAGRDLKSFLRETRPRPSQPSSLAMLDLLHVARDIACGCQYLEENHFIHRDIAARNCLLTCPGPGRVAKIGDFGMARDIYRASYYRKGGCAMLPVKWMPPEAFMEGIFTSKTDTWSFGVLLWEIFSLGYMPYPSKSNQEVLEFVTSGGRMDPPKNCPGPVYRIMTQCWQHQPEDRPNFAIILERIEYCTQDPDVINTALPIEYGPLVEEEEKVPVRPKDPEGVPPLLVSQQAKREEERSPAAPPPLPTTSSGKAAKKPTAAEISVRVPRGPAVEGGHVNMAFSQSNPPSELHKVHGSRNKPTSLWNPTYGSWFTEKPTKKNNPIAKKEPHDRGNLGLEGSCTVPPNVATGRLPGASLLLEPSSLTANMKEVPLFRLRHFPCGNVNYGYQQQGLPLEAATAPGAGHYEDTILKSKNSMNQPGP

[11] = target: Histone deacetylase (Homo sapiens) (UniProt Q13547+O15379+Q9UBN7+Q92769+Q9UQL6+Q8WUI4+Q9BY41+Q96DB2+P56524+Q9UKV0+Q969S8); test: Inhibition of HDAC in human SH-SY5Y cells assessed as increase of intracellular acetylated histone H3 level at 1 to 4 uM measured after 24 hrs by Western blot assay; assay type: cell-based; conditions: dose 1-4 µM
MDA-MB-231 [12] = test: Inhibition of colony formation in human MDA-MB-231 cells at 0.1 to 0.4 uM incubated for 3 days followed by incubation in drug-free medium for 12 days by crystal violet staining based assay; assay type: functional, cell-based; conditions: dose 0.1-0.4 µM, time 3.0 day
MDA-MB-231 [13] = test: Induction of apoptosis in human MDA-MB-231 cells assessed as necrotic cells at 2 uM measured after 24 hrs by Annexin V-FITC/PI staining based flowcytometry (reference value: 0.94%); assay type: functional
[14] = Volume of distribution at steady state in Sprague-Dawley rat at 1 mg/kg, iv measured for 12 hrs by LC-MS/MS analysis; assay type: ADME, organism-based; conditions: in vivo
MDA-MB-231 [15] = test: Cell cycle arrest in human MDA-MB-231 cells assessed as accumulation of cells at G1 phase at 1 uM measured after 24 hrs by PI staining based flowcytometry method (reference value: 55.32%); assay type: functional
[16] = target: T1, ALK tyrosine kinase receptor; test: Inhibition of human ALK at 1 uM
[17] = target: Insulin receptor (Homo sapiens) (UniProt P06213); test: Inhibition of human InsR at 1 uM
Insulin receptor (Homo sapiens), sequence (P06213 28-758 limits assumed): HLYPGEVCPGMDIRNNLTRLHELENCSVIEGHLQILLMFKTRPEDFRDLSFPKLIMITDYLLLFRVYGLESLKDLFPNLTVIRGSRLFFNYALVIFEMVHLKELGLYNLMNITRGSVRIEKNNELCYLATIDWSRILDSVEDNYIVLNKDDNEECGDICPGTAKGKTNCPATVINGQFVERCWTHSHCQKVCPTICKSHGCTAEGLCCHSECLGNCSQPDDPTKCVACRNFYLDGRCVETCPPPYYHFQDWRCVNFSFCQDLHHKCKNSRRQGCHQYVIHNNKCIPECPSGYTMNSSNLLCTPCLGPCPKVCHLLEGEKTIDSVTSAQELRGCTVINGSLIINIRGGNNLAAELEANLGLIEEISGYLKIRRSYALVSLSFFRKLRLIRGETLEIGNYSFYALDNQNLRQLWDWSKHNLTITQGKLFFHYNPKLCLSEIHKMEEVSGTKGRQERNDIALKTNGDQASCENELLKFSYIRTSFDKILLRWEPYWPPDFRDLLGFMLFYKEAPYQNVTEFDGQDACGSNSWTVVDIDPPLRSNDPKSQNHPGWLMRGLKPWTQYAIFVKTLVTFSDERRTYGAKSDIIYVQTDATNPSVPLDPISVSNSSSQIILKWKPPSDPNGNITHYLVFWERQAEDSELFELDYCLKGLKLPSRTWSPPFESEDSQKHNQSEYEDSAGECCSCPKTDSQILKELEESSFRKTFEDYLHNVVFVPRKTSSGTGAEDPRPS
Insulin receptor (Homo sapiens), sequence (P06213 763-1382 limits assumed): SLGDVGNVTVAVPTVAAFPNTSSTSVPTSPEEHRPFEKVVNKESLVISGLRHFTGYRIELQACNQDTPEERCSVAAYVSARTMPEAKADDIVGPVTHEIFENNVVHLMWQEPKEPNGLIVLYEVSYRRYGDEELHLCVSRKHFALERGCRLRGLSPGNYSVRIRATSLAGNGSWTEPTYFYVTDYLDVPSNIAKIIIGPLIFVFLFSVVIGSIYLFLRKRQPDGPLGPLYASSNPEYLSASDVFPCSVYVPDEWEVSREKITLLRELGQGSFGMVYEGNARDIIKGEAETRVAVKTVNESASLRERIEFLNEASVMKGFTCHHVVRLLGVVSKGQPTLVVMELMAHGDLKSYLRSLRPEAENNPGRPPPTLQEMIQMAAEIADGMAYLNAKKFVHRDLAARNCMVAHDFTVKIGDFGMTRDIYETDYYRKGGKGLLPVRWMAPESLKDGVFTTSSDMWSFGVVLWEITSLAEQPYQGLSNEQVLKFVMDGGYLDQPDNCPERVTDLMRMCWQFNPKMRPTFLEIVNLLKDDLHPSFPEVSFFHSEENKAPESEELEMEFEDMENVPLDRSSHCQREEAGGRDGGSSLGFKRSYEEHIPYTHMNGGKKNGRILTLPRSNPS

SH-SY5Y [18] = test: Cell cycle arrest in human SH-SY5Y cells assessed as accumulation of cells at G1 phase at 4 uM measured after 24 hrs by PI staining based flowcytometry method (reference value: 59.8%); assay type: functional
MDA-MB-231 [19] = test: Induction of apoptosis in human MDA-MB-231 cells assessed as late apoptotic cells at 4 uM measured after 24 hrs by Annexin V-FITC/PI staining based flowcytometry (reference value: 5.28%); assay type: functional
[20] = target: T1, ALK tyrosine kinase receptor; test: Inhibition of human ALK in human SH-SY5Y cells assessed as inhibition of ALK phosphorylation at Tyr1278 residue measured after 24 hrs by Western blot assay; assay type: cell-based; conditions: dose 1-4 µM
A549 [21] = test: cells; assay type: functional, cell-based; conditions: Homo sapiens, A549, 72 h
Description: Antiproliferative activity against human A549 cells assessed as inhibition of cell proliferation measured after 72 hrs by CCK8 assay

SH-SY5Y [22] = test: Cell cycle arrest in human SH-SY5Y cells assessed as accumulation of cells at G2 phase at 4 uM measured after 24 hrs by PI staining based flowcytometry method (reference value: 13.23%); assay type: functional
[23] = target: T1, ALK tyrosine kinase receptor; test: Inhibition of ALK in human MDA-MB-231 cells assessed as inhibition of ERK phosphorylation at Thr202/Tyr204 residue at 4 uM measured after 24 hrs by Western blot assay; assay type: cell-based
NCI-H2228 [24] = test: Potency index, ratio of ceritinib IC50 to test compound IC50 for human NCI-H2228 cells harboring EML4/ALK […] assessed as inhibition of cell proliferation measured after 72 hrs by CCK8 assay; assay type: functional
MDA-MB-231 [25] = test: cells; assay type: functional, cell-based; conditions: Homo sapiens, MDA-MB-231, 72 h
Description: Antiproliferative activity against human MDA-MB-231 cells assessed as inhibition of cell proliferation measured after 72 hrs by CCK8 assay

MDA-MB-231 [26] = test: Cell cycle arrest in human MDA-MB-231 cells assessed as accumulation of cells at G2 phase at 1 uM measured after 24 hrs by PI staining based flowcytometry method (reference value: 23.89%); assay type: functional
SH-SY5Y [27] = test: Induction of apoptosis in human SH-SY5Y cells assessed as early apoptotic cells at 1 uM measured after 24 hrs by Annexin V-FITC/PI staining based flowcytometry (reference value: 0.82%); assay type: functional
NCI-H2228 [28] = test: cells; assay type: functional, cell-based; conditions: Homo sapiens, NCI-H2228, 72 h
SH-SY5Y [29] = test: Cell cycle arrest in human SH-SY5Y cells assessed as accumulation of cells at G2 phase at 1 uM measured after 24 hrs by PI staining based flowcytometry method (reference value: 13.23%); assay type: functional
A549 [30] = test: Potency index, ratio of crizotinib IC50 to test compound IC50 for human A549 cells assessed as inhibition of cell proliferation measured after 72 hrs by CCK8 assay; assay type: functional
SH-SY5Y [31] = test: Induction of apoptosis in human SH-SY5Y cells assessed as late apoptotic cells at 4 uM measured after 24 hrs by Annexin V-FITC/PI staining based flowcytometry (reference value: 14.32%); assay type: functional
[32] = Half life in Sprague-Dawley rat at 1 mg/kg, iv measured for 12 hrs by LC-MS/MS analysis; assay type: ADME, organism-based; conditions: in vivo
Homo sapiens = species: Homo sapiens; test: Inhibition of human CDK at 1 uM
HepG2 = test: Potency index, ratio of crizotinib IC50 to test compound IC50 for human HepG2 cells assessed as inhibition of cell proliferation measured after 72 hrs by CCK8 assay; assay type: functional

ALK tyrosine kinase receptor (Homo sapiens, UniProt Q9UM73, L1196M), sequence (Q9UM73 19-1620 L1196M limits assumed): as the sequence (Q9UM73 19-1620 limits assumed) above, with L1178M counted along it

IC50 [1]: 1.7 nM
IC50 (cells): 50 nM
inhibition [2]: Dose-Dependent Effect
inhibition [3]: Dose-Dependent Effect
AUC(0-inf) [8]: 205 ng·h/mL
Ratio IC50 [10]: 10
inhibition [11]: Active
Vdss [14]: 3.3 L/kg
inhibition [16]: Active
inhibition [17]: Active
inhibition [20]: Dose-Dependent Effect
IC50 (A549 [21]): 460 nM
inhibition [23]: Active
IC50 (MDA-MB-231 [25]): 460 nM
IC50 (NCI-H2228 [28]): 130 nM
half-life [32]: 25.2 min
inhibition (Homo sapiens): 95%
SMILES: CC(C)S(=O)(=O)c1ccccc1Nc1nc(Nc2ccc(NC(=O)CCCCCCC(=O)NO)cc2)ncc1Cl
Activity (SH-SY5Y [4]): 4.02%
Ratio IC50 (SH-SY5Y [5]): 3
Activity (MDA-MB-231 [6]): 8.79%
Activity (MDA-MB-231 [7]): 7.72%
Activity (MDA-MB-231 [9]): 21.32%
inhibition (MDA-MB-231 [12]): Active
Activity (MDA-MB-231 [13]): 1.68%
Activity (MDA-MB-231 [15]): 35.05%
Activity (SH-SY5Y [18]): 4.38%
Activity (MDA-MB-231 [19]): 14.85%
Activity (SH-SY5Y [22]): 88.07%
Ratio IC50 (NCI-H2228 [24]): 3
Activity (MDA-MB-231 [26]): 32.53%
Activity (SH-SY5Y [27]): 1.21%
Activity (SH-SY5Y [29]): 48.7%
Ratio IC50 (A549 [30]): 3
Activity (SH-SY5Y [31]): 45.5%
Ratio IC50 (HepG2): 3
